{
  "source": "patent US6710090B2",
  "about": "“Inhibitory or blocking agents of molecular generating and/or inducing functions” (priority 1994, dated 2004)",
  "key": {"[1]": {"tested_on": "atypical mycobacteria (Mycobacterium Rapid Grower)", "test": "Anti-microbacterial effect on acid-fast bacteria", "assay_type": "cell-based"}, "[2]": {"tested_on": "single strand DNA, double strand DNA and mRNA of E. coli bacteriophage", "test": "Antiviral effect, E. coli bacteriophage structure and infection, electron microscopes", "assay_type": "cell-based", "description": "In order to investigate the effect on virus, changes in structure of single strand DNA, double strand DNA and mRNA of E. coli bacteriophage (1 ml of 1 mol solution), which were prepared as non-treated sample and treated sample with 4 μl of Yoshixol, were observed by scanning and transmission electron microscopes. In addition, according a general bacteriological technique, changes in proliferation and in morphological aspect (by scanning and transmission electron microscopes) of E. Coli, which was infected by single strand DNA, double strand DNA or mRNA, were investigated before and after treatment of each phage with Yoshixol. As treated samples, 4 μl of Yoshixol was added in 1 ml of each phage solution which concentration was adjusted to 1 mol. […] In addition, an effect of Yoshixol on chicken myeloblastosis virus (AMV) reverse transcriptase (Gibco Co. Getesburg, Md., USA) was investigated by measuring amount of cDNA synthesis, which was amplified by PCR of RNA(5 μg) and AMV reverse transcriptase (25 units). As treated group, 0.01 μl of Yoshixol was added to 25 units sample of the AMV reverse transcriptase. Thus, the expected production of cDNA was obtained in the non-treated group, however, the amount of cDNA production decreased to 10% of the expected one when Yoshixol was treated (referred FIG. 15)."}, "[3]": {"test": "Softening and flexibility effect on skin", "parameters": "species or system rabbit and dog", "conditions": "histology, hematoxylin eosin staining", "description": "In order to investigate changes of softening and flexibility on skin from rabbit and dog, each skin was is dipped in 5 ml of physiological saline with 10 μl of the test solution. This test solution was prepared from 88 ml of physiological saline with 2 ml of polyoxyethylene (20) sorbitan monoolate 1 (Wakou Jyunyaku Co.) that is identical to Tween80 (ICI Co.) as the basal solution of control. As the treated solution, 10 ml of Yoshixol was added in the basal solution. […] Surgical stitching by the needle was easily to be inserted and transfixed in the skin. […] And, the sample treated with Yoshixol was observed as the preparation which was made from a fresher sample by hematoxylin eosin staining in contrast to the skin sample treated with the test solution of control. Moreover, a similar observation on histological pictures of each sample was obtained even when each skin sample was thawed at 20° C. after storaging each sample at 4° C. in the refrigeration for one month."}, "E. coli strain no. W3110": {"tested_on": "E. coli strain no. W3110", "test": "Anti-microbacterial effect on E. Coli", "assay_type": "cell-based", "conditions": "for colony formation unit (CFU): 2 μl per 1 ml of culture medium"}, "Candida albicans": {"tested_on": "Candida albicans", "test": "Antifungal effect", "assay_type": "cell-based", "conditions": "for CFU: 2 μl per 1 ml of culture medium, 10^6 CFU/ml, Sabouraud broth"}, "[4]": {"tested_on": "rejected reaction on heterogeneous skin implantation", "test": "Heterogeneous skin implantation, recipient dogs given Yoshixol intravenously", "assay_type": "in vivo, dog (rabbit skin)"}, "mouse hepatoma cells": {"tested_on": "mouse hepatoma cells", "test": "Anti-cancer effect, cultured mouse hepatoma cells", "assay_type": "cell-based", "conditions": "compared with keratinocytes treated with Yoshixol"}, "[5]": {"test": "Acute and chronic toxicity, intravenous", "assay_type": "in vivo, rabbit and dog", "description": "In order to investigate a toxicity in vivo, the solution which was mixed 50 μl/Kg of Yoshixol with 1 ml of 20% glucose solution was administered intravenously in unanesthetized animals (rabbit and dog). […] Even though intravenous administration alone was done, it may be confirmed that it is safety."}, "pseudomonas aeruginosa": {"tested_on": "pseudomonas aeruginosa", "test": "Histological observation of pseudomonas aeruginosa after treatment", "assay_type": "cell-based", "conditions": "after treatment with Yoshixol"}, "[6]": {"tested_on": "keratinocytes isolated from a human skin", "test": "Anti-cancer effect, cultured keratinocytes, microscopy", "assay_type": "cell-based", "conditions": "4 μl of Yoshixol", "source_text": "Adhesive factors between cells play an important role on prolifelation of malignant tumor cells and metastasis. In order to investigate the adhesive factors between cells, intracellular structure of cultured keratinocytes are utilized to observe. Thus, by using keratinocytes isolated from a human skin and cultured in this invention, structure between cells and cellular aspect of keratinocytes (5 days passed after culturing of second generation) were investigated by phase microscope (Olympus Co., IMT-2), transmission type (JEOL, Ltd. JEM 1200, EXII) and scanning type (JEOL, Ltd. JSM-6000F) electron microscopes. In the non-treated group with Yoshixol, the cultured cells proliferated monologously and in order as like as a stone wall. There were normal aspects of intracellular organella and mitosis. There were not blank spaces between cell and filling with intracellular matrix (referred FIGS. 16a, 17a). […] In addition, extracellular matrix has been also dispersed in an irregularity from cells as various sizes of particles (referred FIGS. 16b, 17b). […] And also, Yoshixol has an inhibitory effect of cell prolifelation and metastasis such as tumor cells. […]"}, "[7]": {"conditions": "beagles, oral 10 μl per body weight"}, "[8]": {"conditions": "beagles, oral 10 μl per body weight, 1 week"}, "[9]": {"conditions": "50 μl in the whole space of the schale, indirect contact, 24 hours, 37° C."}, "[10]": {"conditions": "rabbit and dog, 50 μl/Kg intravenously"}},
  "data": [
    {"smiles": "C=C1CC(C)(C)C=CC1=O", "note": "[Yoshixol, 4,4-dimethyl-6-methylene-2-cyclohexen-1-one]", "values": [
      {"measurement": "albumin/globulin ratio", "setting": "[7]", "value": "elevated 3 days after administration"},
      {"measurement": "creatinine phosphokinase", "setting": "[7]", "value": "fell"},
      {"measurement": "enzymes such as γ-GPT, GOT, GPT", "setting": "[7]", "value": "also fell"},
      {"measurement": "albumin level", "setting": "[8]", "value": "did not change"},
      {"measurement": "changes in concentration of total bilirubin, GOT, GPT, TTT, ZTT, cholinesterase, serum iron, potassium, sodium, chloride, inorganic phosphorus and calcium", "setting": "[8]", "value": "did not found"},
      {"measurement": "difference in concentration of total cholesterol and triglyceride between groups", "setting": "[8]", "value": "did not occur"},
      {"measurement": "level of uric acid", "setting": "beagles, oral 10 μl per body weight, during the administration", "value": "maintained at lower level"},
      {"measurement": "total proteins in blood serum", "setting": "beagles, oral 10 μl per body weight, recovery 1 week after stop", "value": "increased 3 days after administration"},
      {"measurement": "levels of nonproteins nitrogen and creatinine in the serum", "setting": "beagles, oral 10 μl per body weight, since 1 day after administration", "value": "70-80 % of the control"},
      {"measurement": "TTT and ZTT", "setting": "dog, in vivo, po", "value": "did not show abnormal values"},
      {"measurement": "changes in numbers of red blood cells, white blood cells and platelets", "setting": "dog, in vivo, po", "value": "did not found"},
      {"measurement": "proliferation with evaporating component of Yoshixol", "setting": "[1]; [9]", "value": "did not occur"},
      {"measurement": "diameter of inhibition zone of proliferation", "setting": "[1]; at 2 μl", "value": 22, "unit": "mm"},
      {"measurement": "dosage at which formation of inhibition zone of proliferation occurred", "setting": "[1]; brain-heart infusion agar", "value": "0.2 μl of Yoshixol per 1 ml of the culture medium"},
      {"measurement": "helical and multi-dimensional structure of single strand DNA, double strand DNA and mRNA", "setting": "[2]; 4 μl of Yoshixol in 1 ml phage solution (1 mol), electron microscopes", "value": "became a simple structure"},
      {"measurement": "adhesion of the phage on the bacterial surface and/or intrabacterial existence", "setting": "[2]; E. coli infected with phage treated with Yoshixol", "value": "not in the treated group"},
      {"measurement": "structure damages of each skin", "setting": "[3]", "value": "did not found histologically"},
      {"measurement": "colony formation unit (CFU)", "setting": "E. coli strain no. W3110; after 1 hour cultured, initial 10^8", "value": "zero"},
      {"measurement": "colony formation unit (CFU)", "setting": "E. coli strain no. W3110; after 24 hours, initial 10^8, control 10^10", "value": "zero"},
      {"measurement": "proliferation with evaporating component of Yoshixol", "setting": "E. coli strain no. W3110; [9]", "value": "did not occur"},
      {"measurement": "histological aspect of cell death, scanning electron microscopy", "setting": "E. coli strain no. W3110; final stage after Yoshixol", "value": "destroyed resulting in small particles"},
      {"measurement": "CFU", "setting": "Candida albicans; after 1 hour", "value": "zero"},
      {"measurement": "CFU", "setting": "Candida albicans; after 3 hours incubated", "value": "zero"},
      {"measurement": "proliferation with evaporating component of Yoshixol", "setting": "Candida albicans; [9]", "value": "did not occur"},
      {"measurement": "epithelialization of wounded skin", "setting": "[4]; dogs, 10 μl/Kg per day intravenously for one week, 3 month after implantation", "value": "well epithelialization was found"},
      {"measurement": "implantation of transplanted rabbit skin", "setting": "[4]; dogs, 10 μl/Kg per day of Yoshixol intravenously for one week, no antibiotics or immunosuppressants", "value": "implanted on the back of dog over 1 month without a rejection reaction and bacterial infection"},
      {"measurement": "behaviors of adult mongrel dog", "setting": "[4]; intravenous administration, compared with before the treatment", "value": "became vigor, youthful and appetite-well"},
      {"measurement": "structure between cells and cellular aspect", "setting": "mouse hepatoma cells", "value": "observations similar to the above were found"},
      {"measurement": "duration of transitional signs after the administration", "setting": "[5]; [10]", "value": "1 to 2", "unit": "min"},
      {"measurement": "platelets", "setting": "[5]; [10]", "value": "A change in platelets was not observed"},
      {"measurement": "pathological findings in the vital organs, macroscopically and microscopically", "setting": "[5]; rabbit and dog, 50 μl/Kg intravenously, after 1 month", "value": "any pathological findings were not observed"},
      {"measurement": "abnormal behavior", "setting": "[5]; rabbit and dog, 50 μl/Kg intravenously, observation period of 2 hours", "value": "an abnormal behavior was not found"},
      {"measurement": "abnormal behavior", "setting": "[5]; rabbit and dog, 50 μl/Kg intravenously, observed over 1 month", "value": "any abnormal behavior did not found"},
      {"measurement": "white blood cells", "setting": "[5]; rabbit and dog, 50 μl/Kg intravenously, recovery to normal level at 1 week", "value": "increased 3 days after administration"},
      {"measurement": "examination of blood, anemia", "setting": "[5]; rabbit and dog, 50 μl/Kg intravenously, recovery to the normal after 1 week", "value": "hyperchromic anemia at the maximum level occurred 3 days after administration"},
      {"measurement": "respiration rate, blood pressure, heart rate and movements of an extremity after injection", "setting": "[5]; unanesthetized rabbit and dog, 50 μl/Kg intravenously in 1 ml 20% glucose solution", "value": "transitional increase in respiration rate, increase in blood pressure and heart rate and active movements of an extremity (not convulsion)"},
      {"measurement": "histological observation of the bacilli", "setting": "pseudomonas aeruginosa", "value": "swelled as likely as a balloon and were ruptured"},
      {"measurement": "aspects of cultured cells", "setting": "[6]; 5 days after culturing of second generation", "value": "showed diverse irregularity"},
      {"measurement": "cell membrane and intracellular organella", "setting": "[6]; electron microscopes", "value": "destroyed with varieties"}
    ]}
  ]
}
